Non-standard residues stand in square brackets, D forms with d. Residues, ends and D or L forms follow the SMILES beside them. Nle = CCCC[C@H](N)C(=O)O; βAla = NCCC(=O)O
Tests used:
human BRS-3 = molecular target: T1, human BRS-3 (Homo sapiens, UniProt P32247); experiment: Radioligand binding assay with 125I-dYB
T1 construct: expressed in transfected cells; host or cells: 293EBNA cells, pE3 expression vector
T1 sequence (P32247 1-399): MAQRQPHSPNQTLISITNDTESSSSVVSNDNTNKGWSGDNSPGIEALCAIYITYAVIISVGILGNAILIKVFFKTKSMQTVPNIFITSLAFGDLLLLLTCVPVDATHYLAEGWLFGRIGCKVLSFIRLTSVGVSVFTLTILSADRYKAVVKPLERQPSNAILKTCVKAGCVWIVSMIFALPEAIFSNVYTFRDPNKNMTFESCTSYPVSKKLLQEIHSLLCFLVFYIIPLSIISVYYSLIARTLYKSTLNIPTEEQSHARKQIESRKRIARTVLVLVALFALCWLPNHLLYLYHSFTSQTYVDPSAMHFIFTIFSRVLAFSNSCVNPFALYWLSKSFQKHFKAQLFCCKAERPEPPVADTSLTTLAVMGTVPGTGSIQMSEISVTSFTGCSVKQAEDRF
Description: (§1) Peptide dYB (dY-Q-W-A-V-(beta-A)-H-F-Nle-amide) (SEQ ID NO:10) was made by Research Genetics (Huntsville, Ala.) and custom labeled by NEN Life Science (NEN, Boston, Mass.) with a ^125I on the dY phenyl ring. The specific activity of ^125I-dYB is 2200 ci/mmol. The 293EBNA cells expressing wild type or mutant BRS-3 grown in 150-mm^2 dishes were harvested in binding buffer (50 mM HEPES, pH 7.4, 5 mM MgCl2, 0.1% BSA) and disrupted with Dounce homogenization.
(§2) After removal of cell nuclei by a low speed centrifugation (1000×g) step, the cell membrane proteins were collected by centrifugation at 35,000×g for 20 minutes. The membrane protein concentration was determined by the Bradford method using BSA as standard.
(§3) For binding assays, ˜20 ug membrane proteins were incubated with 0.25 nM ^125I-dYB and various concentrations of competitors in 200 ul binding buffer. After a 2 hr incubation at room temperature, the binding reaction was terminated by filtering through a GF/c filter-mate and washing the filter with binding buffer using Packard 96-well Topcount Harvester. The amount of radioligand bound to the receptor was determined by measurement of the radioactivity on the filter through liquid scintillation counting. The non-specific binding was defined as the binding in the presence of 1 uM unlabeled dYB.

mouse BRS-3 = molecular target: T2, mouse BRS-3 (Mus musculus, UniProt O54798, S28P/V27A); experiment: Calcium mobilization assay (FLIPR), same expression system; assay type: cell-based; details: data not shown
T2 construct: expressed in transfected cells; host or cells: same expression system as rat BRS-3 (pE3 / 293EBNA)
T2 sequence (O54798 1-399 V27A/S28P): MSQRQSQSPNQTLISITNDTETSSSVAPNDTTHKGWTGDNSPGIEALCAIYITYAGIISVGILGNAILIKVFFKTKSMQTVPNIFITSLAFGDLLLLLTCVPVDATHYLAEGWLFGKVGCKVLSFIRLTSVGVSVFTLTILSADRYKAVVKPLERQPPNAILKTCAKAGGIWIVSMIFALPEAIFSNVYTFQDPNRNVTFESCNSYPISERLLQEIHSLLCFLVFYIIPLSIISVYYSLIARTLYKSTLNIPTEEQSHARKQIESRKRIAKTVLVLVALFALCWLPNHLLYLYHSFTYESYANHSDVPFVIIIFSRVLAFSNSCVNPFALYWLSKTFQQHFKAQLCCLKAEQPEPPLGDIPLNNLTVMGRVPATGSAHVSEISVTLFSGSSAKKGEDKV

rat BRS-3 = molecular target: T3, rat BRS-3 (Rattus norvegicus, UniProt Q8K418); experiment: Radioligand binding assay with 125I-dYB
T3 construct: utilized to PCR amplify full-length rat BRS-3 cDNA; expressed in transfected cells; host or cells: 293EBNA cells, pE3 expression vector
T3 sequence (Q8K418 1-399): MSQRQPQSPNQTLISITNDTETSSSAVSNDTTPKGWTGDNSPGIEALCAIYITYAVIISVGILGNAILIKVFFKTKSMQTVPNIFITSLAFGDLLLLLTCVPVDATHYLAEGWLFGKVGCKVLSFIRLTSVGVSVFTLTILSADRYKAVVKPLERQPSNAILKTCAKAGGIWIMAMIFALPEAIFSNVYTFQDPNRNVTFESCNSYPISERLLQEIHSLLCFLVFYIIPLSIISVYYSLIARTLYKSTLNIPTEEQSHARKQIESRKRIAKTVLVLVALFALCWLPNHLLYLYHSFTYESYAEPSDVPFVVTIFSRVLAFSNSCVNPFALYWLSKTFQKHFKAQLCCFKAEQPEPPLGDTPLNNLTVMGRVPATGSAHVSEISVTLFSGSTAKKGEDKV
Description: as §1, §2, §3

Question: With CCCC[C@H](NC(=O)[C@H](Cc1ccccc1)NC(=O)[C@H](Cc1cnc[nH]1)NC(=O)CCNC(=O)[C@@H](NC(=O)[C@H](C)NC(=O)[C@H](Cc1c[nH]c2ccccc12)NC(=O)[C@H](CCC(N)=O)NC(=O)[C@H](N)Cc1ccc(O)cc1)C(C)C)C(N)=O [dYB, [D-Tyr6-betaAla11-Phe13-Nle14] bombesin (6-14)] (H-[dY]QWAV[βAla]HF[Nle]-NH2) as the molecule, how does the Ki (human BRS-3) read?
Answer: Its Ki is 1.8 ± 0.6 nM.

Question: With CCCC[C@H](NC(=O)[C@H](Cc1ccccc1)NC(=O)[C@H](Cc1c[nH]cn1)NC(=O)CCNC(=O)[C@@H](NC(=O)[C@H](C)NC(=O)[C@H](Cc1c[nH]c2ccccc12)NC(=O)[C@H](CCC(N)=O)NC(=O)[C@H](N)Cc1ccc(O)cc1)C(C)C)C(N)=O [dYB, [D-Tyr6-betaAla11-Phe13-Nle14] bombesin (6-14)] (H-[dY]QWAV[βAla]HF[Nle]-NH2) as the molecule, how does the EC50 (mouse BRS-3) read?
Answer: The EC50 was “in the uM range”.

Question: What about the “specific binding to rat BRS-3” value (rat BRS-3) of the same molecule?
Answer: Its value is “undetectable”.

— patent US20050222402A1, “Dna encoding rat bombesin receptor subtype-3 (brs-3) and uses thereof” (priority 2001, published 2005)
